Drawing on ChEMBL document CHEMBL5380862, “Unsymmetrical Phosphodiesters as GPR84 Antagonists with High Blood Exposure for the Treatment of Lung Inflammation” (J Med Chem, 2023), this text covers IC50 and Activity for 25 compounds.

Structures are written as SMILES. The source made the active and inactive calls. No cut-off for these calls is given here.

Assay [1] addresses G-protein coupled receptor 84 (Homo sapiens, UniProt Q9NQS5). The assay can be described thus: Antagonist activity at human GPR84 expressed in HEK293 cells co-expressing Galpha16 assessed as inhibition of 6-OAU induced calcium response incubated for 10 mins by calcium mobilization assay. Format: functional, cell-based. For orientation: Calcium assays in cells follow changes in intracellular calcium, usually with a dye or a luminescent sensor.

Assay [2] concerns Mus musculus. As to the kind of experiment: Protection against C57BL/6 mouse model of LPS-induced acute […] injury assessed as reduction in total cells in BALF at 100 mg/kg, po pre-treated with compound for 30 mins followed by LPS-stimulation for 12 hrs and measured 24 hrs post LPS stimulation by flow cytometric analysis. Format: functional, organism-based. To be noted: time 24.5 hrs. Background: In flow cytometry, cells or beads pass a laser one at a time.

Assay [3] concerns Mus musculus. The assay can be described thus: Protection against C57BL/6 mouse model of LPS-induced acute […] injury assessed as reduction in CD45positive CD11bpositive Ly6Gpositive neutrophils in BALF at 100 mg/kg, po pre-treated with compound for 30 mins followed by LPS-stimulation for 12 hrs and measured 24 hrs post LPS stimulation by flow cytometric analysis. Format: functional, organism-based. To be noted: time 24.5 hrs.

The subject of assay [4] is Mus musculus. As to the kind of experiment: Protection against C57BL/6 mouse model of LPS-induced acute […] injury assessed as reduction in CD45positive immune cells in BALF at 100 mg/kg, po pre-treated with compound for 30 mins followed by LPS-stimulation for 12 hrs and measured 24 hrs post LPS stimulation by flow cytometric analysis. As to conditions: time 24.5 hrs. Format: functional, organism-based.

In assay [5] the test system is Mus musculus. The assay can be described thus: Protection against C57BL/6 mouse model of LPS-induced acute […] injury assessed as amelioration of thickening of alveolar wall at 100 mg/kg, po pre-treated with compound for 30 mins followed by LPS-stimulation for 12 hrs and measured 24 hrs post LPS stimulation by H&E staining based analysis. The assay is classed as functional, organism-based. To be noted: time 24.5 hrs.

Assay [6] relates to Mus musculus. The assay can be described thus: Protection against C57BL/6 mouse model of LPS-induced acute […] injury assessed as amelioration of […] edema at 100 mg/kg, po pre-treated with compound for 30 mins followed by LPS-stimulation for 12 hrs and measured 24 hrs post LPS stimulation by H&E staining based analysis. As to conditions: time 24.5 hrs. Format: functional, organism-based.

Assay [7] concerns Mus musculus. The assay can be described thus: Protection against C57BL/6 mouse model of LPS-induced acute […] injury assessed as amelioration of pulmonary congestion at 100 mg/kg, po pre-treated with compound for 30 mins followed by LPS-stimulation for 12 hrs and measured 24 hrs post LPS stimulation by H&E staining based analysis. The assay is classed as functional, organism-based. As to conditions: time 24.5 hrs.

For assay [8], the system named is Mus musculus. As to the kind of experiment: Protection against C57BL/6 mouse model of LPS-induced acute […] injury assessed as reduction in CD45positive CD11bpositive myeloid cells in BALF at 100 mg/kg, po pre-treated with compound for 30 mins followed by LPS-stimulation for 12 hrs and measured 24 hrs post LPS stimulation by flow cytometric analysis. Format: functional, organism-based. To be noted: time 24.5 hrs.

Sequence of G-protein coupled receptor 84 (Q9NQS5 whole entry): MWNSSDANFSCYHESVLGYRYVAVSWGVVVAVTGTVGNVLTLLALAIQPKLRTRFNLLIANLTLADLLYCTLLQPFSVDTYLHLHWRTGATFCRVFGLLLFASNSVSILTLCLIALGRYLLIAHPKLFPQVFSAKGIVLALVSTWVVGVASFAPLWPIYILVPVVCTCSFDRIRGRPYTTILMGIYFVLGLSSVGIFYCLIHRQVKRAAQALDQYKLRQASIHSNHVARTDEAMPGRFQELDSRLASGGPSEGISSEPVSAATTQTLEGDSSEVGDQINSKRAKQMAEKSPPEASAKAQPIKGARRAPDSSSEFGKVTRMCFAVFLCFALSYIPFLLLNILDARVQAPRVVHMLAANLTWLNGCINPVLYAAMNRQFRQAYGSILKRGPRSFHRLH

In general, IC50 refers to the concentration needed to halve the response being measured. As to `COc1cccc2c1Sc1ccccc1C=C2OP(=O)(O)O[C@H]1C[C@@H](C)CC[C@@H]1C(C)C`, the IC50 in assay [1] came to 91 nM.

For the compound `CC1(C)[C@@H]2CC[C@@](C)(C2)[C@@H]1OP(=O)(O)OC1=Cc2ccccc2Sc2ccccc21`, the IC50 in assay [1] is 166 nM.

`COc1cccc2c1Sc1ccccc1C=C2OP(=O)(O)OC1C(C)(C)CCCC1(C)C`: the half-maximal inhibitory concentration (IC50) in assay [1] worked out at 110 nM.

For the compound `COc1cccc2c1Sc1ccccc1C=C2OP(=O)(O)OC12CC3CC(C)(CC(C)(C3)C1)C2`, in assay [1], the concentration for half-maximal inhibition (IC50) is 126 nM.

`COc1cccc2c1Sc1ccccc1C=C2OP(=O)(O)O[C@@H]1C[C@H](C)CC[C@H]1C(C)C`: the IC50 in assay [1] stood at 68 nM.

As to `CCCCCCCCCOP(=O)(O)OC1=Cc2ccccc2Sc2c(OC)cccc21`, the IC50 in assay [1] amounted to 194 nM.

Turning to `COc1cccc2c1Sc1ccccc1C=C2OP(=O)(O)OC`, in assay [1], the IC50 amounted to 2830 nM.

`CC/C=C\CCCCOP(=O)(O)OC1=Cc2ccccc2Sc2c(OC)cccc21`: the 50% inhibitory concentration (IC50) in assay [1] came out at 517 nM.

For the compound `COc1cccc2c1Sc1ccccc1C=C2OP(=O)(O)OC1CCOC1` (stereo unspecified), in assay [1], the IC50 came out at 3990 nM.

Turning to `COc1cccc2c1Sc1ccccc1C=C2OP(=O)(O)OC1CCC(C)CC1` (stereo unspecified), the 50% inhibitory concentration (IC50) in assay [1] worked out at 4010 nM.

For the compound `CCCCCCCCP(=O)(O)OC1=Cc2ccccc2Sc2c(OC)cccc21`, the IC50 in assay [1] stood at 219 nM.

Regarding `CCOC(=O)[C@H](CS)NC(C)=O`, the outcome in the assay on Mus musculus [2], with Mus musculus [3], in the assay on Mus musculus [4], with Mus musculus [5], with Mus musculus [6] and in the assay on Mus musculus [7] was Active. In addition, the outcome in the assay with Mus musculus [8] was Active.

Turning to `COc1cccc2c1Sc1ccccc1C=C2OP(=O)(O)OC1CCCCC1C` (stereo unspecified), in assay [1], the IC50 was found to be 1730 nM.

Regarding `CCCCCCOP(=O)(O)OC1=Cc2ccccc2Sc2c(OC)cccc21`, in assay [1], the IC50 was found to be 325 nM.

Consider `CC1(C)[C@@H]2CC[C@@](C)(C2)[C@@H]1OP(=O)(O)OC1=Cc2c(F)cccc2Sc2ccccc21`, for which the half-inhibitory concentration (IC50) in assay [1] was found to be 554 nM.

For the compound `COc1cccc2c1Sc1ccccc1C=C2OP(=O)(O)Oc1cc(C)ccc1C(C)C`, the IC50 in assay [1] came out at 658 nM.

Turning to `COc1cccc2c1Sc1ccccc1C=C2OP(=O)(O)Oc1cccc2ccccc12`, the IC50 in assay [1] stood at 130 nM.

Regarding `COc1cccc2c1Sc1ccccc1C=C2OP(=O)(O)OC12CC3CC(CC(C3)C1)C2`, the 50% inhibitory concentration (IC50) in assay [1] came to 340 nM.

Regarding `CC1(C)[C@@H]2CC[C@@](C)(C2)[C@@H]1OP(=O)(O)O[C@@H]1C(C)(C)[C@@H]2CC[C@@]1(C)C2`, the IC50 in assay [1] came out at 29600 nM.

Regarding `CC1(C)[C@@H]2CC[C@@](C)(C2)[C@@H]1OP(=O)(O)OC1=Cc2ccccc2Oc2ccccc21`, the IC50 in assay [1] turned out to be 711 nM.

On to `CC1(C)[C@@H]2CC[C@@](C)(C2)[C@@H]1OP(=O)(O)OC1=Cc2ccccc2Sc2c(OC(F)(F)F)cccc21`, for which the IC50 in assay [1] came out at 12 nM.

As to `COc1cccc2c1Sc1ccccc1C=C2OP(=O)(O)Oc1ccc2ccccc2c1`, in assay [1], the IC50 came to 609 nM.

As to `COc1cccc2c1Sc1ccccc1C=C2OP(=O)(O)OC1CC1`, in assay [1], the IC50 turned out to be 39500 nM.

On to `COc1cccc2c1Sc1ccccc1C=C2OP(=O)(O)Oc1cc(C(C)C)ccc1C`, for which the IC50 in assay [1] amounted to 196 nM.

Take `CCOCCOCCOP(=O)(O)OC1=Cc2ccccc2Sc2c(OC)cccc21`: in assay [1], the IC50 is 21800 nM.
